Source: US20250277272A1, “CANCER TREATMENTS AND METHODS OF SELECTING SAME” (The General Hospital Corporation, priority 2016, published 2025)

Experiments:
[1] = tested on: melanoma; experiment: Melanoma patient treated with BRAFi, relapse; type: in vivo, human; conditions: one melanoma patient who relapsed
Description: This mutation in STAG2 gene (c.577G>A, resulting in Asp193Asn) was subsequently confirmed by Sanger sequencing. Although the pretreatment sample contains trace amounts of the mutated allele, it is greatly enriched in the post-relapse sample (FIG. 1A). STAG2 (also known as SA2) encodes a core subunit in the cohesin complex that regulates cohesion and segregation of sister chromatids^11,12. […] Stag2 has two other paralogs in mammals, Stag1 and Stag3. […] Sanger sequencing was subsequently performed for all coding exons of STAG2 and STAG3 genes in these cell line pairs and identified a STAG2 nonsense mutation (c.3247A>T, resulting in a change of Lys1083 to a stop codon (Lys1083*)) in WM902BR cells, which was not present in the parental WM902 cells (FIG. 6A). No mutations in STAG3 were identified in this cell line panel. […] STAG3 mutations were detected in post-relapse, but not pre-treatment, samples from an additional six patients from this study (Table 2).
Patient samples and immunohistochemistry (IHC): Patients with metastatic melanoma containing BRAF^Val600 mutations (confirmed by genotyping) were enrolled in clinical trials testing treatment with a BRAF inhibitor alone or in combination with a MEK inhibitor. […] Formalin-fixed tissue was analyzed to confirm that viable tumor was present, using hematoxylin and eosin (H&E) staining. […]

[2] = tested on: WM902BR cells; experiment: MTS assay with the ERK inhibitor, WM902 (Stag2 WT) and WM902BR (Stag2 mutant); type: cell-based; conditions: 3 days, two independent experiments
Procedure: Both WM902 (Stag2 WT) and WM902BR (Stag2 mutant) were treated with various concentrations of ERK inhibitor SCH772984 for 3 days, before MTS assays were performed. Data were from two independent experiments: Experiment A (FIG. 11A) and Experiment B (FIG. 11B).
(§1) Cell culture: All melanoma cell lines used in this study contain BRAF^Val600Glu mutations, except as otherwise indicated. A375 and SKMEL28 cells were purchased from the American Type Culture Collection (ATCC). LOX-IVMI cells were obtained from the Division of Cancer Treatment and Diagnosis. National Cancer Institute. (NCI-DCTD) repository. WM902, WM902-BR, WM983, WM983-BR and MEL1617 cell lines were obtained from Dr. Meenhard Herlyn (Wistar Institute). Immortalized Braf-null mouse embryonic fibroblasts (MEFs) were a gift from Dr. Catrin Pritchard (University of Leicester)^38. 501MEL and SKMEL103 cells, harboring NRAS mutations, were gifts from Dr. Lynda Chin (MD Anderson Cancer Center) and Dr. Jonathon Zippin (Weill Cornell Medical College), respectively. These cell lines were not authenticated by the inventors. WM902, WM983, M14, MEL1617, SKMEL28, A375, LOX-IVMI, 501MEL and SKMEL103 cells were cultured in RPMI containing 10% FBS (FBS) and penicillin-streptomycin-glutamine (PSG). HEK293 and MEF cells were maintained in Dulbecco's modified Eagle's medium (DMEM) containing 10% FBS and PSG. […]

[3] = tested on: M14 or SKMEL28 melanoma cells; experiment: MTS assay with the ERK inhibitor, cells with inducible Stag2 knockdown; type: cell-based; conditions: doxycycline-induced shStag2 #60; 3 days
Procedure: M14 (FIG. 12A) or SKMEL28 (FIG. 12B) melanoma cells expressing pTRIPZ-shStag2 #60 were cultured in the presence or absence of doxycycline (Doxy) for 5 days to induce the expression of Stag2 shRNAs and treated with various concentrations of ERK inhibitor SCH772984 for 3 days, before MTS assays were performed.
as §1, with “(PSG).” for “(PSG). HEK293 and MEF cells were maintained in Dulbecco's modified Eagle's medium (DMEM) containing 10% FBS and PSG.”

[4] = tested on: SKMEL28, A375 and M14 cells; experiment: Sensitivity of cells with inducible STAG2 shRNA to BRAFi (viability, Western blot); type: cell-based; conditions: inducible expression of an independent shRNA targeting STAG2
Procedure: (§2) FIGS. 2A-2H. Knock-down of STAG2 or STAG3 decreases BRAFi sensitivity in BRAF-mutant melanoma cells. FIG. 2A, Viability of A375 cells expressing cither a scrambled control shRNA or a STAG2-specific shRNA (shSTAG2 #23), after treatment with varying concentrations of dabrafenib (Dab) for 3 d. Experiment was performed three times. Data are mean±s.e.m. shSTAG2 #23 sequence: […] TTTG; SEQ ID NO. 1) scramble control shRNA sequence: ([…]: SEQ ID NO. 2) FIG. 2B, Representative Western blot analysis of A375 cells that were treated with dabrafenib for 2 hr. Experiment was performed three times. FIG. 2C, Viability of SKMEL28 cells expressing an inducible STAG2-specific shRNA (shStag2 #60; […]: SEQ ID NO. 3) and cultured in the presence (+Dox) or absence (−Dox) of doxycycline after treatment with varying concentrations of vemurafenib (VEM) for 3 d. Experiment was performed three times. FIG. 2D, Representative Western blot analysis of SKMEL30 cells that were treated with vemurafenib for 2 hr. FIG. 2E, Viability of A375 cells expressing either a scrambled control shRNA or a STAG3-specific shRNA (shSTAG3 #96), after treatment with varying concentrations of dabrafenib for 3 days. Experiment was performed 3 times. Data are mean±s.e.m. […]

[5] = tested on: ERK phosphorylation; experiment: Western blot of p-ERK in A375 cells with STAG2 and/or STAG3 knockdown; type: cell-based; conditions: 2 hr treatment
Procedure: as §2

[6] = tested on: BRAF-mutant melanoma cells; experiment: BRAFi sensitivity after STAG3 knockdown (cell viability and ERK inhibition); type: cell-based; conditions: knockdown of STAG3
[7] = tested on: A375 cells; experiment: MTS cell viability assay, A375 cells with STAG2 knockdown; type: cell-based; conditions: A375 cells expressing STAG2-specific shRNA vs scrambled control shRNA; 3 d
Procedure: FIGS. 2A-2H. […] FIG. 2A, Viability of A375 cells expressing cither a scrambled control shRNA or a STAG2-specific shRNA (shSTAG2 #23), after treatment with varying concentrations of dabrafenib (Dab) for 3 d. Experiment was performed three times. Data are mean±s.e.m. shSTAG2 #23 sequence: […] TTTG; SEQ ID NO. […] 2) FIG. 2B, Representative Western blot analysis of A375 cells that were treated with dabrafenib for 2 hr. Experiment was performed three times. […] Experiment was performed three times. FIG. 2D, Representative Western blot analysis of SKMEL30 cells that were treated with vemurafenib for 2 hr. […] Experiment was performed 3 times. Data are mean±s.e.m. […] Experiment was performed three times. […] Experiment was performed three times. […] Experiment was performed three times.
Experiment was performed 3 times. Data are mean±s.e.m. […] Experiment was performed three times. […] Experiment was performed three times. […] Experiment was performed 3 times. Data are mean±s.e.m. […] Experiment was performed three times. […] Experiment was performed three times. […] Experiment was performed 3 times. […] Experiment was performed 3 times. Data are mean±s.e.m. […] Experiment was performed 3 times.

CCCS(=O)(=O)Nc1ccc(F)c(C(=O)c2c[nH]c3ncc(-c4ccc(Cl)cc4)cc23)c1F [vemurafenib]
time-to-disease-progression [1]: 5 months

O=C(Nc1ccc2[nH]nc(-c3ccncc3)c2c1)[C@@H]1CCN(CC(=O)N2CCN(c3ccc(-c4ncccn4)cc3)CC2)C1 [SCH772984]
sensitivity of cells in MTS assay [2]: sensitive to inhibition
effect of Stag2 knockdown on sensitivities in MTS assay [3]: does not affect their sensitivities

CC(C)(C)c1nc(-c2cccc(NS(=O)(=O)c3c(F)cccc3F)c2F)c(-c2ccnc(N)n2)s1 [dabrafenib]
sensitivity of cells to BRAFi [4]: decreased the sensitivity
ability to inhibit ERK phosphorylation [5]: reduction in the ability
sensitivity with regard to cell viability and ERK inhibition [6]: decreased sensitivity
sensitivity in cell viability assay (MTS) [7]: lower sensitivity
